Results taken from US20250108038A1 (priority 2023, published 2025).

Legend:
[1] = Stability in beagle dog plasma
Description: Pooled (N≥3) male SD rat, beagle dog and mixed gender human plasma with EDTA-K2 as anticoagulant were purchased from BioIVT (NY, USA) and stored in a −70° C. freezer before use.
Incubations were conducted in 96-well plate format. The time points defined for this study are 0, 5, 15, 30 and 60 minutes.
For positive controls, the rat plasma was spiked with enalapril, the dog plasma spiked with bisacodyl and the human plasma was spiked with propantheline. All spiked plasma sample plates were incubated in a water bath at 37° C. with shaking.
At end of each time point, samples were immediately quenched with three volume of cold quenching solution. All sample plates were mixed thoroughly by shaking for approximately 10 minutes and centrifuged at 3220×g for 15 minutes. Subsequently, 100 μL of supernatant was removed from each well, mixed with 100 μL water in a new 96-well plate and subjected to LC-MS/MS analysis.
Concentrations of test article, metabolite, and control compounds in the samples were analyzed by LC-MS/MS semi-quantitatively. […] The peak area ratios of analyte/internal standard were used to semi-quantitatively determine the concentrations.
The peak area ratios (PAR) of analyte/internal standard were used to semi-quantitatively determine the concentration of test article and control compounds, and calculate the percent remaining with the following equation:
The elimination rate (ke) was calculated from a log linear plot of % remaining versus time. The half-life was calculated using the following equation:

[2] = target: CYP2D6 (Homo sapiens, UniProt P10635)
[3] = tested on: Wistar rats; assay: Five Choice Serial Reaction Time Task, vSD version, repeated administration; type: in vivo, Wistar rat; set-up: Latency (Correct) / Latency (Incorrect): unit not given here; conditions: for Latency (Correct) / Latency (Incorrect) / Magazine Head Entries / Omissions / Reward Latency / Trials Completed: vSD, mean ± SEM
Description: The behavioral tasks utilized were three versions of the rat Five Choice Serial Reaction Time Task (5C-SRTT), the standard version of the task (STD) with a fixed stimulus duration and a fixed intertrial interval, the variable stimulus duration (vSD) and the variable intertrial interval (vITI) version. The principal readout parameters in each task were the % Hit and the % correct choices (measures of sustained attention) and three measures of inhibitory response control (premature, perseverative, and timeout responses), although a number of additional outcome measures were obtained (see under Methods and Results below).
Twenty-four adult (approx. 10 months old) male Wistar rats (Envigo, Inc, Indianapolis, IN) were used in the study. […] Subjects were double housed in polycarbonate cages (45×30×18 cm) with corncob bedding in a vivarium of constant temperature (21-23° C.) and humidity (40-50%). […] All behavioral testing was performed during the light portion (9 a.m.-5 p.m.) of the light/dark cycle (Monday thru Friday). Animals were cared for in accordance with the Guide for the Care and Use of Laboratory Animals (U.S. National Institutes of Health) and the experimental protocols were approved by the Institutional Animal Care and Use Committee at Augusta University (Protocol #2010-0044).
The 5C-SRTT procedure (reviewed, Robbins, 2002. Psychopharmacology (Berl); 163(3-4):362-80) was conducted as we have described previously (Terry et al., 2014, Neurotoxicology and Teratology 44:18-29, 2014; Callahan et al., 2020, Neuropharmacology. August 15; 173:107994). […] Animals were trained in eight automated 5C-SRTT operant chambers (Med Associates, St. Albans, VT, USA), controlled by MedPC software (Med Associates). Briefly, each operant chamber was equipped with 5 apertures containing a photocell beam to detect nose pokes and a lamp (2.8 W) that could be illuminated randomly at varying durations. Food pellets (45 mg chow pellet, BioServ, Frenchtown, NJ, USA) were delivered automatically to a magazine, located on the opposite wall to the nose pokes, that was also equipped with a light that turned on to indicate that a pellet had been dispensed. The house-light remained on for the entire session unless an error or omission occurred. Training sessions began with the delivery of a food reward and retrieval triggered the first trial. […] Sessions ended when 40 minutes had lapsed or 100 trials had been completed.
For this study, subjects were re-trained 5 days per week until they re-established a stable performance criteria with a fixed (1.0 sec) stimulus duration and a fixed ITI (5 sec) of 70-75% accuracy, <20% omissions and completion of all 100 trials for 5 consecutive days. Upon meeting these performance criteria animals were trained for one additional week and two groups of subjects (N=12) were assembled and balanced according to their performance accuracy, specifically the % Hit evaluation, which takes into account correct responses as well as all incorrect responses including the number of omissions. […] The vSD version of the task increases the attentional load while the vITI increases impulsivity-like behavior. The following outcome measures and behavioral domains were assessed: % Hit and % correct=sustained attention; omissions=attention/motivation; premature responses=impulsivity; perseverative responses=compulsivity; timeout responses=cognitive inflexibility; magazine head entries=appetitive motivation and compulsivity-like behavior; response latencies=information processing speed and/or motivation. For the STD version of the task, the stimulus duration (SD) was fixed at 1.0 sec and the ITI was fixed at 5 sec. In the vSD version of the task the following stimulus durations were presented in a pseudorandom manner: 0.3, 0.6, and 0.9 sec. In the vITI version, 2.5, 5.0, and 10.0 sec ITIs were employed in a pseudorandom manner. […]

[4] = Group 1, 0.1 mg/kg, Drug Exp period
[5] = Group 1, 0.1 mg/kg, Post-Drug Exp (vehicle washout) period
[6] = Group 2, 0.3 mg/kg, Drug Exp period
[7] = Group 2, 0.3 mg/kg, Post-Drug Exp (vehicle washout) period

Chain of CYP2D6 (P10635 whole entry): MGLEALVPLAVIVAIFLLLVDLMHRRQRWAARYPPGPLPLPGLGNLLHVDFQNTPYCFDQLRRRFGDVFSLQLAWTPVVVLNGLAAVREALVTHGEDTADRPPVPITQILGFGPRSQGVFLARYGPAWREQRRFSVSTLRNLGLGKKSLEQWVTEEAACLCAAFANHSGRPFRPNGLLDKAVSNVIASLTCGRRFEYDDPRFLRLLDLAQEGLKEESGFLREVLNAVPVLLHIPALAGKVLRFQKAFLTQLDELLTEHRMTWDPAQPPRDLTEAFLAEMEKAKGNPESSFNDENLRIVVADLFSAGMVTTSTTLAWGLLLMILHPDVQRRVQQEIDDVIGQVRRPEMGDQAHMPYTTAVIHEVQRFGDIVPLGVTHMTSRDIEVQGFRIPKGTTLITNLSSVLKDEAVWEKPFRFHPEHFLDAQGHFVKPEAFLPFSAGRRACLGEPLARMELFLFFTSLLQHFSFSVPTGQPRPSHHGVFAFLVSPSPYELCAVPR

Structure (SMILES): COCCOC1(c2ccc(Cl)cc2)c2ccccc2C2=NCCN21 (centres unmarked) [Compound I-4]
- Compound A formed (Aa/Ai) ([1]; 0 min): 0.48
- % Remaining ([1]; 2.0 μM, 0 min): 100%
- Aa/Ai Mean (N = 2) ([1]; 2.0 μM, 0 min): 2.24
- % Remaining ([1]; 2.0 μM, 5 min): 93.5%
- Aa/Ai Mean (N = 2) ([1]; 2.0 μM, 5 min): 2.10
- % Remaining ([1]; 2.0 μM, 15 min): 92.0%
- Aa/Ai Mean (N = 2) ([1]; 2.0 μM, 15 min): 2.07
- % Remaining ([1]; 2.0 μM, 30 min): 89.2%
- Aa/Ai Mean (N = 2) ([1]; 2.0 μM, 30 min): 2.00
- % Remaining ([1]; 2.0 μM, 60 min): 83.7%
- Aa/Ai Mean (N = 2) ([1]; 2.0 μM, 60 min): 1.88
- T1/2 ([1]; 2.0 μM, 60 min incubation): >3.12 h
- Compound A formed (Aa/Ai) ([1]; 5 min): 0.46
- Compound A formed (Aa/Ai) ([1]; 15 min): 0.46
- Compound A formed (Aa/Ai) ([1]; 30 min): 0.42
- Compound A formed (Aa/Ai) ([1]; 60 min): 0.39

Structure (SMILES): Clc1ccc(C2(OCC3OCCO3)c3ccccc3C3=NCCN32)cc1 (centres unmarked) [Compound I-19]
- Inhibition at Highest Test Article Concentration ([2]; 2D6, Dextromethorphan, at 50 μM): 84.3 at 50 μM %
- IC50 ([2]; microsomes): 8.7 µM
- % Hit ([3]; repeated 0.1 and 0.3 mg/kg IP): modest decrease in accuracy that was limited to the 0.6 sec stimulus duration
- premature responses ([3]; repeated 0.1 and 0.3 mg/kg IP): reduced the number of premature responses compared to post-drug conditions
- Latency (Correct) [3, 4]: 0.99
- Latency (Incorrect) [3, 4]: 2.17
- Magazine Head Entries [3, 4]: 168.21 ± 10.60
- Omissions [3, 4]: 15.79
- Reward Latency [3, 4]: 2.44
- Trials Completed [3, 4]: 94.17 ± 2.75
- Latency (Correct) [3, 5]: 0.86 ± 0.03
- Latency (Incorrect) [3, 5]: 1.90 ± 0.09
- Magazine Head Entries [3, 5]: 189.79 ± 14.47
- Omissions [3, 5]: 8.12 ± 1.63
- Reward Latency [3, 5]: 2.13
- Trials Completed [3, 5]: 97.79 ± 2.21
- Latency (Correct) [3, 6]: 0.91
- Latency (Incorrect) [3, 6]: 2.21
- Magazine Head Entries [3, 6]: 208.46 ± 28.88
- Omissions [3, 6]: 14.08
- Reward Latency [3, 6]: 2.99
- Trials Completed [3, 6]: 98.29 ± 0.84
- Latency (Correct) [3, 7]: 0.76
- Latency (Incorrect) [3, 7]: 1.65 ± 0.08
- Magazine Head Entries [3, 7]: 245.17 ± 33.79
- Omissions [3, 7]: 5.79 ± 1.35
- Reward Latency [3, 7]: 2.11
- Trials Completed [3, 7]: 100.00
